Measured values reported in publication PMC4774911, “Biochemical Screening of Five Protein Kinases from Plasmodium falciparum against 14,000 Cell-Active Compounds” (PLoS ONE, 2016).
Several values for one entry are separate records, joined by “and”; a condition that tells them apart may be missing. Equal entries are not always repeated.

Assays:
Assay in all cases: biochemical
Design in all cases: endogenous in cells; host or cells: K562 cell extract; species or system K562 (extract); replicate k of n = 2 (each experiment ID is one independent experiment; two experiment IDs per compound)
Details in all cases: read-out: KDapp
ACVR1B = molecular target: T1, ACVR1B (Homo sapiens, UniProt P36896)
T1 sequence (P36896 1-505): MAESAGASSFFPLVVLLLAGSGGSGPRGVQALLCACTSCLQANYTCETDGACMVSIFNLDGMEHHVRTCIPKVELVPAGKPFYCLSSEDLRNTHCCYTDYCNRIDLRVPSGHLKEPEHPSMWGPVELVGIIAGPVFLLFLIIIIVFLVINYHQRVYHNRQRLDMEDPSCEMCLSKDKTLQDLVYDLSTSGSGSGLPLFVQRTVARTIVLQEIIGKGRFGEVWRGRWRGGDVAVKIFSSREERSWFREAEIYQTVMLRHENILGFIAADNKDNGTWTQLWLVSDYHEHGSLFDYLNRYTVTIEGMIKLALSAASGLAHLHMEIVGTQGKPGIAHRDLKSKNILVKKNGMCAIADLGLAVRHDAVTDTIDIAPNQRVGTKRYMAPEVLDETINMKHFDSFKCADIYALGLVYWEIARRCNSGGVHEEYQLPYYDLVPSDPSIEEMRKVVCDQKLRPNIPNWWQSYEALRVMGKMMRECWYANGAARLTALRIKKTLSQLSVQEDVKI

LATS1 = molecular target: T2, LATS1 (Homo sapiens, UniProt O95835)
T2 sequence (O95835 1-1130): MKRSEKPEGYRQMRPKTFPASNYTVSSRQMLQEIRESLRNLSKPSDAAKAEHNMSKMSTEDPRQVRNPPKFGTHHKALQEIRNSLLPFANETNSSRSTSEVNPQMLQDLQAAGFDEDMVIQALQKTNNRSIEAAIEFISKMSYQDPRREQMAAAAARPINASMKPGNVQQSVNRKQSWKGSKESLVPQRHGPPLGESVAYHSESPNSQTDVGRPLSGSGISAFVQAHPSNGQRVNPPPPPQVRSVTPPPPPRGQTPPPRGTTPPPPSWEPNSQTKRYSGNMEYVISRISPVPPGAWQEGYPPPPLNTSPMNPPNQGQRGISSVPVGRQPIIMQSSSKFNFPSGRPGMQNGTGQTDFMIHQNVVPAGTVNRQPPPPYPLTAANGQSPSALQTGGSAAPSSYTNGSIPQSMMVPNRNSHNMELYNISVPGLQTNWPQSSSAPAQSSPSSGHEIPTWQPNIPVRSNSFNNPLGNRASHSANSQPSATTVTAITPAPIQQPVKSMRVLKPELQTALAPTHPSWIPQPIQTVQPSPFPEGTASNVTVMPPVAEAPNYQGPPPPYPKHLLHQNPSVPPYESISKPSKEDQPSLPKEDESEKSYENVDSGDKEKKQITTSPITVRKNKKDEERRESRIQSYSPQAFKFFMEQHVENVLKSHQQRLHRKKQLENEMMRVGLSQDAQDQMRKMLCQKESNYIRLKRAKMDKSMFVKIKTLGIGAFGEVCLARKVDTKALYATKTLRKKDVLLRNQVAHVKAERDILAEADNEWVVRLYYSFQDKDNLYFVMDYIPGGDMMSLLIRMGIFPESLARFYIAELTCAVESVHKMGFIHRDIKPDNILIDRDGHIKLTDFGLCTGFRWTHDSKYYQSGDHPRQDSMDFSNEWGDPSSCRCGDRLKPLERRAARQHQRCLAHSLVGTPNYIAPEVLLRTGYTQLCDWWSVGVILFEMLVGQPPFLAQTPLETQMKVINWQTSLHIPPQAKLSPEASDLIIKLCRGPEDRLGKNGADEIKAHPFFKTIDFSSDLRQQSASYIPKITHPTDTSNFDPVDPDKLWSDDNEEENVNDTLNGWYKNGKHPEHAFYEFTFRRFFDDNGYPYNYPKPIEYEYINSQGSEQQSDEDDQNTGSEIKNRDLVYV

MYLK3 = molecular target: T3, MYLK3 (Homo sapiens, UniProt Q32MK0)
T3 sequence (Q32MK0 1-819): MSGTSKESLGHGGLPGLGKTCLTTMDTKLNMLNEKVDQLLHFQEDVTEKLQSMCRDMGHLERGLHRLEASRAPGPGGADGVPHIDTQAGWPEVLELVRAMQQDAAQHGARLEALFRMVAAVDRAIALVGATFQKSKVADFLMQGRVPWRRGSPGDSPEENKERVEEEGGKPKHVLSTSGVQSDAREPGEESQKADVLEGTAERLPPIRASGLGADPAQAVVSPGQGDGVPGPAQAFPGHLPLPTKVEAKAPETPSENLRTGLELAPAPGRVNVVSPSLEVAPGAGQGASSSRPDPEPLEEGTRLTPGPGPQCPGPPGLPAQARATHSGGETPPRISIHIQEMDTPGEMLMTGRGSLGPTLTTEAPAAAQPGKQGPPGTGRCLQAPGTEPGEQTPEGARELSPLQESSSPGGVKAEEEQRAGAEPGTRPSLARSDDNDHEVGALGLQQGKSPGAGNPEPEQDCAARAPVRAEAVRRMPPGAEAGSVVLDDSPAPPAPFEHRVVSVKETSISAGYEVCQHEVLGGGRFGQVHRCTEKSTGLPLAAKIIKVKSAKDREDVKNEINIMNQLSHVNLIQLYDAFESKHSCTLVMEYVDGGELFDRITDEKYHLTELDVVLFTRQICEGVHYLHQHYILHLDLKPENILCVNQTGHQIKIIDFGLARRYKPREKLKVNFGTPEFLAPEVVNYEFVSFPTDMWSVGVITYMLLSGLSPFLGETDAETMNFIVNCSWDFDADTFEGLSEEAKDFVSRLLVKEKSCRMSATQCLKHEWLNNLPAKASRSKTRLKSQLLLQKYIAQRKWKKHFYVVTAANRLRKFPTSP

PRKACB = PRKACB (Homo sapiens, UniProt P22694)

Structure (SMILES)	Kd (ACVR1B)	Kd (LATS1)	Kd (MYLK3)	Kd (PRKACB)
CN1CCN(c2ccc(Nc3ncc(C#N)c(Nc4ccccc4C(N)=O)n3)cc2)CC1.Cl [TCMDC-134116]	1630 nM	174 nM	56 nM and 77.8 nM	5740 nM
Cl.NCC1(c2nc(-c3ccc(Cl)c(O)c3)c(-c3ccncc3)[nH]2)CCCCC1 [TCMDC-141154]	240 nM	911 nM		811 nM
CN(C)CC(O)COc1ccc(Nc2ncc([N+](=O)[O-])c(Nc3ccccc3O)n2)cc1.O=C(O)C(F)(F)F (centres unmarked) [TCMDC-141399]			1760 nM and 1510 nM	
